US6180156A, “Acid salts of N-[N-(3,3-dimethylbutyl)-L-α-aspartyl]-L-phenylalanine 1-methyl ester” (The NutraSweet Company, priority 1998, dated 2001)
Where a name gives a salt, the structure may show the parent alone. Read-outs that look alike come from different tables or passages of the source. Residues, ends and D or L forms follow the SMILES beside them.

Assays:
[1] = amino group (primary in aspartame, secondary in neotame); cited from earlier work
[2] = cited from earlier work
[3] = on a weight basis, cited from earlier work
[4] = compared with aspartame; cited from earlier work
[5] = Dissolution in water (time to complete dissolution); type: physicochemical
Protocol: N-[N-(3,3-dimethylbutyl)-L-α-aspartyl]-L-phenylalanine 1-methyl ester (25.0 g) was slurried in 150 ml of water. To the stirred slurry was slowly added concentrated hydrochloric acid (5.5 ml, 0.0661 mol). After approximately 10 minutes all the solid had dissolved. The clear solution was then freeze dried. […] Yield: 27.34 g white solid (99.7%). The hydrochloride salt (1 g) dissolved in water (100 ml) in 70 seconds. 1H NMR (CD3 CN) δ 0.89 (s, 9H), 1.64 (m, 2H), 3.01 (m, 6H), 3.68 (s, 3H), 4.16 (t, 1H), 4.67 (m, 1H), 7.26 (m, 5H), 8.27 (d, 1H). Anal. Calcd for C20 H31 ClN2 O5.H2 O: C, 55.48; H, 7.69; N, 6.47; Cl, 8.19. Found: C, 55.95; H, 7.59; N, 6.55; Cl, 8.35.
N-[N-(3,3-dimethylbutyl)-L-α-aspartyl]-L-phenylalanine 1-methyl ester (10.0 g) was slurried in 100 ml of water. An equimolar amount of 85% phosphoric acid solution was added. After all the solid dissolved, the solution was freeze dried. […] Yield 12.33 g white solid (98.0%). The phosphate salt (0.1 g) dissolved in water (100 ml) in less than 30 seconds (visual observation) and about 90 seconds by spectrophotometric analysis. 1H NMR (CD3 CN) δ 0.89 (s, 9H), 1.55 (m, 2H), 2.84 (m, 5H), 3.19 (m, 1H), 3.67 (s, 3H), 4.06 (t, 1H), 4.70 (m, 1H), 7.27 (m, 5H), 8.03 (d, 1H). Anal. Calcd for C20 H33 N2 O9 P.H2 O: C, 48.58; H, 7.15; N, 5.67; P, 6.26. Found: C, 48.15: H, 7.08; N, 5.60; P, 6.57.
N-[N-(3,3-dimethylbutyl)-L-α-aspartyl]-L-phenylalanine 1-methyl ester (25.0 g) was slurried in 100 ml of water and concentrated sulfuric acid (3.67 ml) was added slowly. After several minutes of stirring some material remained undissolved. Therefore, 75 ml of acetone was added. The resulting clear solution was stirred for 30 minutes, then the acetone was removed under reduced pressure on a rotary evaporator. The contents of the flask remained a clear solution. […] Yield: 30.04 g (95%). The sulfate salt (0.1 g) dissolved in water (100 ml) in less than 20 seconds (visual observation). 1H NMR (CD3 CN) δ 0.89 (s,9H), 1.57 (m, 2H), 2.91 (m, 5H), 3.20 (m, 1H), 3.68 (s, 3H), 4.15 (t, 1H), 4.72 (m, 1H), 7.27 (m, 5H), 7.68 (d, 1H). Anal. Calcd for C20 H32 N2 O9 S.H2 O: C, 48.56; H, 6.94; N, 5.66; S, 6.48. Found C, 48.93; H, 7.02; N, 5.78; S, 6.50.
N-[N-(3,3-dimethylbutyl)-L-α-aspartyl]-L-phenylalanine 1-methyl ester (5.00 g) was dissolved in 75 ml of acetone. Citric acid (2.53 g) was dissolved in 50 ml of water, and the acetone solution was added. This formed a clear, colorless solution that was stirred for 1 hour. The acetone was evaporated under reduced pressure. The resulting slurry was freeze dried to obtain 7.5 g of a white solid. The citrate salt (0.1 g) dissolved in water (100 ml) in 90 seconds (visual observation). δ (CD3 CN) 0.89 (s, 9H), 1.53 (m, 2H), 2.83 (m, 10H), 3.20 (m, 1H), 3.67 (s, 3H), 4.04 (t, 1H), 4.21 (m, 1H), 7.27 (m, 5H), 7.79 (d, 1H). Anal. Calcd for C26 H38 N2 O12.H2 O: C, 53.05; H, 6.86; N, 4.76. Found: C, 53.10; H, 6.88; N, 4.41.
N-[N-(3,3-dimethylbutyl) -L-α-aspartyl]-L-phenylalanine 1-methyl ester (0.05-0.1 g) was dissolved in water (100 mL). The compound completely dissolved in 5-7 minutes (visual observation). The dissolution of 1.0 g of N-[N-(3,3-dimethylbutyl)-L-α-aspartyl]-L-phenylalanine 1-methyl ester in 100 mL of water required approximately 45 minutes.

[6] = compared with aspartame, under some pH conditions; cited from earlier work
[7] = Aqueous solubility compared to the starting material / water solubility; type: physicochemical; settings: starting material = neotame
[8] = 0.1 g in water (100 ml), visual observation

For `COC(=O)[C@H](Cc1ccccc1)NC(=O)[C@H](CC(=O)O)NCCC(C)(C)C` [N-[N-(3,3-dimethylbutyl)-L-α-aspartyl]-L-phenylalanine 1-methyl ester], the pKa [1] is given as 8.1, the solubility in water ([2]; compared with aspartame) is given as “much lower solubility in water” and the solubility in water ([2]; in words, no comparator) is given as “sparingly soluble in water”. For the same compound, the “sweetening potency relative to aspartame” value ([3]; times that of aspartame) was “at least 50 times”, the “sweetening potency relative to sucrose” value ([3]; times that of sucrose) was “about 10,000 times” and the “solubility in organic solvents” value [4] was “much higher solubility in organic solvents than aspartame”. For the same compound, the “dissolution time in water, completely dissolved (visual observation)” value ([5]; 0.05-0.1 g in water (100 mL), visual observation) was 5 to 7 min, the “dissolution time in water” value ([5]; 1.0 g in 100 mL of water) was “approximately 45 minutes” and the stability [6] was “higher stability than aspartame under some pH conditions”.

In the case of `COC(=O)[C@H](Cc1ccccc1)NC(=O)[C@@H](N)CC(=O)O` [aspartame] (H-Asp-Phe-OMe), the pKa [1] is listed as 7.7.

For `COC(=O)[C@H](Cc1ccccc1)NC(=O)[C@H](CC(=O)O)NCCC(C)(C)C` [hydrochloride salt, Hydrochloride Salt of N-[N-(3,3-dimethylbutyl)-L-α-aspartyl]-L-phenylalanine 1-methyl Ester], the “dissolution time in water” value ([5]; 1 g in water (100 ml)) was 70 s and the “aqueous solubility compared to the starting material” value [7] was “greatly increased aqueous solubility compared to the starting material”.

With `COC(=O)[C@H](Cc1ccccc1)NC(=O)[C@H](CC(=O)O)NCCC(C)(C)C` [sulfate salt, Sulfate Salt of N-[N-(3,3-dimethylbutyl)-L-α-aspartyl]-L-phenylalanine 1-methyl Ester] the “dissolution time in water (visual observation)” value [5, 8] was “less than 20 seconds” and the “aqueous solubility compared to the starting material” value [7] was “greater aqueous solubility compared to the starting material”.

In the case of `COC(=O)[C@H](Cc1ccccc1)NC(=O)[C@H](CC(=O)O)NCCC(C)(C)C` [citrate salt, Citrate Salt of N-[N-(3,3-dimethylbutyl)-L-α-aspartyl]-L-phenylalanine 1-methyl Ester], the “dissolution time in water (visual observation)” value [5, 8] is reported as 90 s.

For `COC(=O)[C@H](Cc1ccccc1)NC(=O)[C@H](CC(=O)O)NCCC(C)(C)C` [phosphate salt, Phosphate Salt of N-[N-(3,3-dimethylbutyl)-L-α-aspartyl]-L-phenylalanine 1-methyl Ester], the “dissolution time in water by spectrophotometric analysis” value ([5]; 0.1 g in water (100 ml), spectrophotometric analysis) was “about 90 seconds”, the “dissolution time in water (visual observation)” value [5, 8] was “less than 30 seconds” and the “aqueous solubility compared to the starting material” value [7] was “greatly increased aqueous solubility compared to the starting material”.
